In PubChem BioAssay AID686917 (Sanford-Burnham Center for Chemical Genomics, 2013):
pIC50: −log10 of the molar value. Where “and” joins values, the source holds several entries; their conditions need not be identical. Identical values can stand only once. Calls of active or inactive are those of the source.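 Rule for the calls: active = IC50 at or below 100 µM in the confirmatory dose response; inactive = the rest.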

target: 26S proteasome non-ATPase regulatory subunit 14 (Homo sapiens) (UniProt O00487); assay: inhibition of proteasome Rpn11 deubiquitination – biochemical, fluorescence polarization, human 26S proteasome, uHTS hits, dose response (AID 686917); conditions: purified human 26S proteasome, Ub4-pepOG fluorescence polarization
Sequence (O00487 whole entry, looked up): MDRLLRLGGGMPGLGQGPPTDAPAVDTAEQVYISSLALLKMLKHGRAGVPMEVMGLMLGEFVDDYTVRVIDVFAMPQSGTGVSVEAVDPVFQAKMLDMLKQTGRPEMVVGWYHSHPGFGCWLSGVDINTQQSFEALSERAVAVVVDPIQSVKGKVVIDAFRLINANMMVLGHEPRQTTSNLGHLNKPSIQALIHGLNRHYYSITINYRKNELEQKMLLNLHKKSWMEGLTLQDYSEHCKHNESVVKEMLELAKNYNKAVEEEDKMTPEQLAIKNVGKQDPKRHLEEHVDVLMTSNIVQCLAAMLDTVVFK

SMILES | pIC50 | IC50
C[C@@H](C(=O)O)N(C)C(=O)c1cnc2c(SSc3cccc4cc(C(=O)N(C)[C@@H](C)C(=O)O)cnc34)cccc2c1 | 5.23 | –
COC(=O)[C@H](C)N(C)C(=O)c1cnc2c(SSc3cccc4cc(C(=O)N(C)[C@@H](C)C(=O)OC)cnc34)cccc2c1 | 5.37 | –
COC(=O)[C@@H]1CCCN1C(=O)c1cnc2c(SSc3cccc4cc(C(=O)N5CCC[C@H]5C(=O)OC)cnc34)cccc2c1 | 5.47 | –
COC(=O)[C@H](CC(C)C)NC(=O)c1cnc2c(SSc3cccc4cc(C(=O)N[C@@H](CC(C)C)C(=O)OC)cnc34)cccc2c1 | 5.27 | –
COC(=O)[C@H](CO)NC(=O)c1cnc2c(SSc3cccc4cc(C(=O)N[C@@H](CO)C(=O)OC)cnc34)cccc2c1 | 5.31 | –
O=C(Sc1cccc2cccnc12)c1ccc(F)c(F)c1 | 5.43 | –
O=C(O)[C@@H]1CCCN1C(=O)c1cnc2c(SSc3cccc4cc(C(=O)N5CCC[C@H]5C(=O)O)cnc34)cccc2c1 | 5.77 | –
O=C(Sc1cccc2cccnc12)c1cccc(C(F)(F)F)c1 | 5.07 | –
COC(=O)[C@H](C)NC(=O)c1ccnc2c(SSc3cccc4c(C(=O)N[C@@H](C)C(=O)OC)ccnc34)cccc12 | 5.36 | –
O=C(Sc1cccc2cccnc12)C1CCCCC1 | 6.18 | –
CC[C@@H](C)[C@H](NC(=O)c1cnc2c(SSc3cccc4cc(C(=O)N[C@H](C(=O)O)[C@H](C)CC)cnc34)cccc2c1)C(=O)O | 5.74 | –
COC(=O)C[C@H](NC(=O)c1cnc2c(SSc3cccc4cc(C(=O)N[C@@H](CC(=O)OC)C(=O)OC)cnc34)cccc2c1)C(=O)OC | 5.46 | –
CC(C)(C)OC(=O)CCNC(=O)c1cnc2c(SSc3cccc4cc(C(=O)NCCC(=O)OC(C)(C)C)cnc34)cccc2c1 | 5.31 | –
COC(=O)[C@H](C)NC(=O)c1cnc2c(SSc3cccc4cc(C(=O)N[C@@H](C)C(=O)OC)cnc34)cccc2c1 | 5.30 | –
COC(=O)c1cnc2c(SSc3cccc4cc(C(=O)OC)cnc34)cccc2c1 | 5.47 | –
COC(=O)[C@@H](NC(=O)c1cnc2c(SSc3cccc4cc(C(=O)N[C@H](C(=O)OC)C(C)C)cnc34)cccc2c1)C(C)C | 5.40 | –
O=C(Sc1cccc2cccnc12)c1ccc([N+](=O)[O-])cc1 | 5.00 | –
CC(C)C[C@H](NC(=O)c1cnc2c(SSc3cccc4cc(C(=O)N[C@@H](CC(C)C)C(=O)O)cnc34)cccc2c1)C(=O)O | 5.60 | –
CC[C@@H](C)[C@H](NC(=O)c1cnc2c(SSc3cccc4cc(C(=O)N[C@H](C(=O)OC)[C@@H](C)CC)cnc34)cccc2c1)C(=O)OC | 5.75 | –
O=C(O)c1cnc2c(SSc3cccc4cc(C(=O)O)cnc34)cccc2c1 | 5.90 | –
O=C(Sc1cccc2cccnc12)c1ccc(C(F)(F)F)cc1 | 5.43 | –
O=C(Sc1cccc2cccnc12)c1ccc2c(c1)OCO2 | 4.85 | –

Continued, values first:

pIC50 | IC50 | SMILES
5.24 | – | O=C(Sc1cccc2cccnc12)c1ccccc1Cl
5.27 | – | O=C(Sc1cccc2cccnc12)c1ccc(F)cc1
5.28 | – | O=C(Sc1cccc2cccnc12)c1ccccc1[N+](=O)[O-]
5.58 | – | CCCc1ccc(C(=O)Sc2cccc3cccnc23)cc1
5.40 | – | O=C(Sc1cccc2cccnc12)c1cccc2ccccc12
5.90 | – | Cc1cccc(C(=O)Sc2cccc3cccnc23)c1
5.93 | – | O=C(Sc1cccc2cccnc12)c1cccc(Cl)c1
4.80 | – | N#Cc1cccc(C(=O)Sc2cccc3cccnc23)c1
5.42 | – | O=C(Sc1cccc2cccnc12)c1ccccc1Br
– | > 99 µM (inactive) | O=C(Sc1cccc2cccnc12)c1ccccc1F
5.34 and 5.68 | – | COc1ccccc1C(=O)Sc1cccc2cccnc12
5.83 | – | COc1cccc(C(=O)Sc2cccc3cccnc23)c1
5.28 | – | O=C(Sc1cccc2cccnc12)c1ccccc1
5.45 | – | COc1ccc(C(=O)Sc2cccc3cccnc23)cc1F
5.04 | – | COc1ccc(C(=O)Sc2cccc3cccnc23)cc1OC
5.61 | – | CC(C)Cc1ccc(C(=O)Sc2cccc3cccnc23)cc1
5.66 | – | O=C(Sc1cccc2cccnc12)c1ccccc1I
5.39 | – | O=C(Sc1cccc2cccnc12)c1ccccc1OC(F)(F)F
4.96 | – | Cc1ccccc1C(=O)Sc1cccc2cccnc12
5.83 | – | O=C(Sc1cccc2cccnc12)c1c(Cl)cccc1Cl
5.01 | – | O=C(Sc1cccc2cccnc12)c1ccc(F)cc1F
5.43 and 4.84 | – | CCOc1ccccc1C(=O)Sc1cccc2cccnc12
5.36 | – | COc1ccc(C(=O)Sc2cccc3cccnc23)cc1
– | > 99 µM (inactive) | N#Cc1ccc(C(=O)Sc2cccc3cccnc23)cc1
4.84 | – | Cc1ccc(C(=O)Sc2cccc3cccnc23)cc1
